Source: patent publication US20250283074A1, “CLUSTERIN OVEREXPRESSION IN ALZHEIMER’S DISEASE” (University of Virginia Patent Foundation, priority 2021, published 2025)
Entries after “also recorded” stand apart in the source; their conditions may differ.

Assays:
[1] = test system: APP/PS1 model of AD; conditions: cited from earlier work
[2] = test system: clusterin expression in the corpus callosum; test: Cuprizone model of demyelination, clusterin immunofluorescence in the corpus callosum; format: in vivo; conditions: 5 weeks cuprizone diet then 1 week normal chow vs naïve mouse
Text: FIG. 9A is a photomicrograph showing clusterin expression (white) in the corpus callosum of a naïve mouse and a mouse following 5-weeks of cuprizone diet followed by 1-week of normal chow to allow remyelination to begin. FIG. 9B is a bar graph showing quantification of clusterin coverage of the corpus callosum depicted in FIG. 9A. N=1 independent experiment, n=5 mice per group. Data analyzed using an unpaired t-test. ***p<0.001. Error bars represent standard error of the mean.
Based on preliminary data, it is anticipated that genetic and the therapeutic silencing of clusterin ameliorate the pathology observed in the 5×FAD mice. If a difference in the number of oligodendrocytes and myelination is undetected, the 5×FAD are tested with the cuprizone model of demyelination. Diet supplemented with cuprizone (5 weeks at 0.3% w/w) induces extensive demyelination of the medial corpus callosum (Doucette et al., 2010). However, demyelination induced in this manner is reversible, as remyelination occurs following the removal of the drug. […] Sections of the medial corpus callosum (midline region above the for mix and between the lateral ventricles) are stained as proposed herein above to quantify OPCs and oligodendrocytes at the end of cuprizone treatment as well as 0.5, 1, 1.5, and 2 weeks following the removal of cuprizone, as described (see Fernandez-Castaneda et al., 2020).

[3] = test system: clusterin expression in OPCs; test: Clusterin expression in treated primary OPCs by qPCR; format: cell-based, mouse; conditions: for effect of phagocytosis block on clusterin upregulation by myelin debris or apoptotic cells in OPCs: Cytochalasin D 1 μM with 100 μg/ml myelin debris; for clusterin expression in OPCs by qPCR (FIG. 7): 10 ng/ml TNFα 3 h, 10 μM H2O2 3 h, 3 μM Aβ 2 h, apoptotic cells 1:1 6 h, 100 μg/ml myelin debris 4 h; for clusterin expression in OPCs by qPCR (FIG. 12): 4-hour in vitro treatment: 3 μM Aβ, 100 μg/ml myelin, 10 ng/ml TNFα or IFNγ, 10 μM H2O2
Description: FIGS. 7A-7F: Macromolecules and protein aggregates cause OPCs to upregulate clusterin. OPCs treated with 10 ng/ml TNFα for 3 hours (FIG. 7A), 10 μM H2O2 for 3 hours (FIG. 7B), 3 μM […] for 2 hours (FIG. 7C), a 1:1 ratio of apoptotic cells for 6 hours (FIG. 7D), 100 μg/ml myelin debris for 4 hours (FIG. 7E), or 100 μg/ml myelin debris and 1 μM Cytochalasin D for 4 hours (FIG. 7F). Clusterin transcript quantity was measured using qPCR. N=1-2 independent experiments. n=4-8 samples/condition. All data was analyzed using a repeated measures t-test. ns: not significant; CytoD: Cytochalasin D. *p<0.05, **p<0.01.
FIGS. 12A-12I: Phagocytosis of extracellular debris drives clusterin expression in OPCs. FIG. 12A. Representative images of OPCs (PDGFRα in green, Olig2 in red) surrounding Aβ plaques (n=4; Scale bar=20 μm). FIG. 12B. Representative orthogonal view of CypHer-labeled Aβ (white) inside an OPC (PDGFRα in green. Olig2 in red) following injection of Aβ (n=6; Scale bar=10 μm). Representative images (FIG. 12C) and quantification (FIG. 12D) of clusterin expression (red) in the ipsilateral (CypHer-Aβ injected: green) and contralateral (FITC injected; green) hemispheres following injection (n=6 mice: Scale bar=100 μm) FIG. 12E. qPCR analysis of clusterin expression in OPCs following a 4-hour in vitro treatment with 3 μM Aβ and the phagocytosis blocker CytoD (1 μM) or vehicle control (n=24). f, Quantification of clusterin protein in OPCs following 72-hour treatment with 3 μM Aβ or vehicle control (n=10). qPCR analysis of clusterin expression in OPCs following a 4-hour in vitro treatment with 100 μg/ml myelin (FIG. 12G), cytokines (10 ng/ml TNFα or 10 ng/ml IFNγ; FIG. 12H) or 10 μM H2O2 (FIG. 12I) and CytoD (1 μM) or vehicle control (n=4-19).
Oligomeric […] Drives Expression of Clusterin in OPCs Given the impact of clusterin on OPCs differentiation in vitro, and the evidence supporting that myelin is impacted in AD (Roher et al., 2002; Desai et al., 2009; Desai et al., 2010; Zhan et al., 2014), we wanted to understand what factors initiate expression of clusterin in OPCs. We treated primary OPCs with TNFa, H2O2, oligomeric Aβ, myelin debris, and apoptotic cells and monitored expression of clusterin by qPCR. These treatments were selected because of their association with AD pathology (Sengupta et al., 2016; Ahmad et al., 2017; Chang et al., 2017). […] In order to test if phagocytosis was required to mediate the upregulation of clusterin, the same experiment was repeated in the presence of Cytochalasin D to block actin polymerization and prevent engulfment (Axline & Reaven, 1974; Soldati & Schliwa, 2006).
We next investigated whether Aβ treatment increases clusterin expression in OPCs. […] We noted that increase in clusterin expression was not specific to the phagocytic clearance of Aβ oligomers, as we also observed it when OPCs engulfed cellular debris.

[4] = test system: OPCs (OLIG2+/PDGFRα+); test: Tamoxifen-induced YFP labelling of OPCs in PDGFRα-CreER; R26-EYFP reporter mice; format: in vivo, mouse; conditions: 2 tamoxifen injections 3 days apart, counted ten days after the first injection, adult mice
Description: FIG. 1A is a representative image of YFP labeled OPCs (PDGFRα+Olig2+) cells following 2 tamoxifen injections. […] FIG. 1B is a graph of percent of OPCs expressing YFP following 0, 1, 2, or 3 tamoxifen injections. Each injection was given 3 days apart. n=2-3 mice/group.
To investigate the optimal dose of tamoxifen required for the reporter expression, we treated adult mice (6 weeks old) with 1, 2, or 3 tamoxifen injections (each injection was administered 3 days apart) and counted the number of YFP positive OPCs (OLIG2+/PDGFRα+) ten days after the first injection (see FIG. 1B).

[5] = test system: clusterin; conditions: patients with prostate cancer, Phase 3 clinical trial; cited from earlier work
[6] = test system: OPCs; test: OPC differentiation into oligodendrocytes, myelin marker expression by qPCR; format: cell-based, mouse; conditions: differentiating conditions, 3 days
Description: (§1) FIGS. 13A-13G: Exogenous clusterin inhibits OPC differentiation. Expression of Mbp (FIG. 13A), Plp1 (FIG. 13B), Cnp (FIG. 13C), and Myrf (FIG. 13D), measured by qPCR in OPCs or OLGs treated with vehicle or 8 μg/ml of clusterin for 72 hours (n=7). Representative images (FIG. 13E) and quantification (FIG. 13F) of MBP expression in cells treated with or without 8 μg/ml of clusterin for 72 hours (n=5: Scale bar=50 μm). FIG. 13G. Quantification of OPCs viability following a 72 hours incubation with or without 8 μg/ml clusterin (n=11).
(§2) FIGS. 14A-14D: Clusterin inhibits differentiation by blocking IL-9 production. FIG. 14A. Quantification of cytokines present in the supernatant from OPCs treated with 8 μg/mL clusterin or vehicle control (n=6). Expression of Mbp (FIG. 14B), Plp1 (FIG. 14C), and Myrf (FIG. 14D), measured by qPCR in OPCs cultured in proliferation media (OPC Vehicle), differentiation media supplemented with vehicle (OLG Vehicle), or 8 μg/ml of is clusterin (OLG CLU), or 100 ng/ml IL-9 (OLG IL-9), or 8 μg/ml of clusterin and 100 ng/ml IL-9 (OLG CLU+IL-9) for 72 hours (n=11).
OPCs were prepared from neurospheres as previously described (Franco et al., 2015) and subsequently switched into differentiating conditions in the presence of recombinant clusterin (8 μg/ml) or vehicle (PBS) for 3 days. […]

[7] = test system: OPCs; test: OPC differentiation, MBP positive oligolineage cells by immunofluorescence; format: cell-based, mouse; conditions: clusterin 8 μg/ml, 72 hours, differentiation media
Description: (§3) FIGS. 6A-6D: Clusterin inhibits OPC differentiation. FIG. 6A is a series of bar graphs showing expression of Mbp, Pip1, Cnp, and Myrf, measured by qPCR in cells cultured in proliferation media (OPC_Veh), differentiation media (OLG_Veh), or differentiation media supplemented with 8 μg/ml of clusterin (OLG_Clu). Data was analyzed using a mixed-effects analysis followed by a Tukey's multiple comparisons test. N=3 individual experiments, n=7 samples per group. FIG. 6B is a series of representative fluorescence micrograph images of cells cultured in differentiation media (Vehicle) or differentiation media supplemented with 8 μg/ml of clusterin (Clusterin). […] FIG. 6C is a bar graph of the quantification of the differentiation efficiency of cells depicted in FIG. 6B. […] Data was is analyzed using a repeated measures t-test. […]
as §1, with “FIG. 13G.” left out, “(n=11). […]” for “(n=11).”

[8] = test system: OPCs; test: OPC viability, CCK8 assay; format: cell-based, mouse; conditions: clusterin 8 μg/ml, 72 hours
Description: as §3
as §1, with “FIG. 13G.” left out, “(n=11). […]” for “(n=11).”

[9] = test system: IL-9 secretion by OPCs; test: Luminex Assay on the supernatant of OPCs (cytokine and growth factor secretion); format: cell-based, mouse; conditions: clusterin 8 μg/mL vs vehicle
Description: as §2
We next investigated what factors might be mediating clusterin's inhibition of OPC differentiation.
To identify whether clusterin can modify the composition of the OPC secretome, an unbiased multiplex analysis on the conditioned media of OPCs treated with vehicle or clusterin for 1-3 days was performed. […] IL-9 is a growth factor for T-cell subsets 64, and IL-9 receptor is expressed by OPCs in vivo. However, production and secretion of IL-9 by OPCs has not been previously reported.

CN1CCC[C@@H]1CCO[C@](C)(c1ccccc1)c1ccc(Cl)cc1 [Clemastine]
myelin integrity and memory performance [1]: improved both myelin integrity and memory performance

O=C(NN=C1CCCCC1)C(=O)NN=C1CCCCC1 [Cuprizone]
clusterin expression in the corpus callosum [2]: upregulated

C=C1[C@@H](C)[C@H]2[C@H](Cc3ccccc3)NC(=O)[C@]23[C@H](OC(C)=O)/C=C/[C@@](C)(O)C(=O)[C@@H](C)C/C=C/[C@H]3[C@@H]1O [Cytochalasin D]
effect of phagocytosis block on Aβ-induced clusterin upregulation in OPCs ([3]; CytoD 1 μM with 3 μM Aβ, 4 hours): prevented Aβ from increasing clusterin production in OPCs | effect of phagocytosis block on clusterin upregulation by myelin debris or apoptotic cells in OPCs ([3]; 4 hours): internalization of the cargo is necessary to mediate the upregulation of clusterin | effect of phagocytosis block on clusterin upregulation by myelin debris or apoptotic cells in OPCs ([3]; 4 hours, listed as CytoD): abrogated

OO [H2O2]
clusterin expression in OPCs by qPCR (FIG. 7) [3]: did not influence clusterin expression | clusterin expression in OPCs by qPCR (FIG. 12) [3]: failed to induce changes in clusterin expression

CC/C(=C(\c1ccccc1)c1ccc(OCCN(C)C)cc1)c1ccccc1 [tamoxifen]
percent of OPCs expressing YFP [4]: 95%

Custirsen: ASO targeting clusterin in Phase 3 clinical trial; OGX-011 is 5-CAGCAGCAGAGTCTTCATCAT-3′ (SEQ ID NO: 11) (listed as DNA, chemistry not given here; listed as Homo sapiens)
levels of clusterin in patients [5]: safely and effectively reduce levels of clusterin

IL-9: interleukin 9 cytokine added exogenously (100 ng/ml) to differentiating OPCs
Expression of Mbp, Plp, and Myrf by qPCR in clusterin-treated OPCs supplemented with IL-9 ([6]; IL-9 100 ng/ml plus clusterin 8 μg/ml): prevented clusterin inhibition; also recorded: restored expression of these mature oligodendrocyte genes to a level similar as the untreated control

TNFα
clusterin expression in OPCs by qPCR (FIG. 7) [3]: did not influence clusterin expression | clusterin expression in OPCs by qPCR (FIG. 12) [3]: failed to induce changes in clusterin expression

clusterin: recombinant clusterin, a secreted chaperone protein, containing an HIS-tag, added exogenously to OPCs
Expression of myelin markers (Mbp, Plp, Cnp, and Myrf) as determined by qPCR ([6]; recombinant clusterin 8 μg/ml vs vehicle (PBS)): decreased; also recorded: striking decrease; also recorded: blocks OPC differentiation | percentage of MBP positive oligolineage cells (immunofluorescence) [7]: decrease; also recorded: fewer MBP-positive oligodendrocytes | OPC viability [8]: did not impact OPC viability; also recorded: not due to OPC death | secretion of growth factors and cytokines by OPCs [9]: altered secretion of multiple proteins | IL-9 secretion by OPCs ([9]; 1-3 days): marked reduction; also recorded: blocked IL-9 release from OPCs

B1: IFNγ: cytokine upregulated in Alzheimer's disease, 10 ng/ml (protein, UniProt P01579 24-161, looked up)
Interferon gamma: QDPYVKEAENLKKYFNAGHSDVADNGTLFLGILKNWKEESDRKIMQSQIVSFYFKLFKNFKDDQSIQKSVETIKEDMNVKFFNSNKKKRDDFEKLTNYSVTDLNVQRKAIHELIQVMAELSPAAKTGKRKRSQMLFRG
clusterin expression in OPCs by qPCR (FIG. 12) [3]: failed to induce changes in clusterin expression
